Patent US20250268877A1 (BIOGEN MA INC., priority 2020, published 2025)
≈ marks a conversion by molar mass, not a printed value. Where two headings read alike, the source gives them in different places.

Experiments:
[1] = Kinetic solubility assay (CLND), potassium phosphate buffer pH 6.8; type: physicochemical; details: potassium phosphate buffer, kinetic from dmso stock, pH 6.8, 2% DMSO, 24 hours at ambient temperature; for solubility at 24 h: pH 6.8, aqueous buffer
[2] = target: catalytical domain of human IRAK4 (a.a. 163-460) (Homo sapiens (Human), UniProt Q9NWZ3); assay: IRAK4 SPR binding assay; details: single-cycle, 1:1 interaction model
Chain of catalytical domain of human IRAK4 (a.a. 163-460) (Q9NWZ3 163-460): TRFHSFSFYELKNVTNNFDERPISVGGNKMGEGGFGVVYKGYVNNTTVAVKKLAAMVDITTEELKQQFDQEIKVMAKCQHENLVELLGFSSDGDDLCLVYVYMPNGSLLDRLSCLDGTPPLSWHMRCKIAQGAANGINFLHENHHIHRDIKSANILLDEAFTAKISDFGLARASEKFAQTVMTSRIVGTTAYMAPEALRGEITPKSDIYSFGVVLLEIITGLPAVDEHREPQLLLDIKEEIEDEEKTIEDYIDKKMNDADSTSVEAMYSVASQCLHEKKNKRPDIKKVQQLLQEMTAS

MDR1 = MDR1 (Homo sapiens (Human), UniProt P08183); assay: MDR1-MDCK assay (apparent permeability, efflux ratio); type: in vitro ADME; details: human, MDCK-MDR1, 1 μM
Chain of MDR1 (P08183 whole entry, the tested form may be a part): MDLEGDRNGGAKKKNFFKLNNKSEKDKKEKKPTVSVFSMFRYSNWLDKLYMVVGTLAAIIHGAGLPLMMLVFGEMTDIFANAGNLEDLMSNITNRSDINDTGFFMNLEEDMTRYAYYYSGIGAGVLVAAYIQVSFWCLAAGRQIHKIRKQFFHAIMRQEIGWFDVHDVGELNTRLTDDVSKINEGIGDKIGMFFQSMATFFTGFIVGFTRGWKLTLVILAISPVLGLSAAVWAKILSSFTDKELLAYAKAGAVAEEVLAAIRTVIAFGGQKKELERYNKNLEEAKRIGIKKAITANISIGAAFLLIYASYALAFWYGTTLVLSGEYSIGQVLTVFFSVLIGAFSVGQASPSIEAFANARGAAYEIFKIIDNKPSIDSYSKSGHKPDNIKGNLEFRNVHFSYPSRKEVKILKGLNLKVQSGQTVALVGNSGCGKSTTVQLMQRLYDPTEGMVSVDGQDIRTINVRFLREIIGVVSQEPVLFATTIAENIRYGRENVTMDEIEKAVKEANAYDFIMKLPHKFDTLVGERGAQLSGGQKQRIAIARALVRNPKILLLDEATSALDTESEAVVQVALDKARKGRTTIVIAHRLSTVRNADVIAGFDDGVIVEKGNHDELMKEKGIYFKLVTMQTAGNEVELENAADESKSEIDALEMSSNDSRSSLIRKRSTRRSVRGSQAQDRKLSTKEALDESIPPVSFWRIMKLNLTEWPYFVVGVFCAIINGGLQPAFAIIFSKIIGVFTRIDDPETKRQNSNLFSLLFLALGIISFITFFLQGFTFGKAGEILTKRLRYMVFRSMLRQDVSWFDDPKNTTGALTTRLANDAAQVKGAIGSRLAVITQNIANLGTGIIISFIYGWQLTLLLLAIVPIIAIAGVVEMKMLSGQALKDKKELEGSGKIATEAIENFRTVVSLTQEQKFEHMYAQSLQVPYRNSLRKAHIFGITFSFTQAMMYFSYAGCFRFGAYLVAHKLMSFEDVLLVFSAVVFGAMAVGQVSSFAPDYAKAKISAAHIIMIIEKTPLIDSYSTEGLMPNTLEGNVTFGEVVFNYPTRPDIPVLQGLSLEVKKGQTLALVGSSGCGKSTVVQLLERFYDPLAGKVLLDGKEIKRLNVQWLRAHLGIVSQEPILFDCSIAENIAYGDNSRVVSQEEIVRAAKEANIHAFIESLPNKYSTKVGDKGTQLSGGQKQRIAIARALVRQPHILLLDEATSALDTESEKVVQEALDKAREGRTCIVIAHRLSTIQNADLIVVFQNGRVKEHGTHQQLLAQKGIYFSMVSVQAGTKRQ

[3] = Kpuu assay (in vivo brain-to-plasma partition, unbound); details: intravenous infusion 4 to 24 h, unbound drug partition coefficient; for Kp: brain (unbound) versus plasma (unbound), read-out: Brain Kpu,u
IRAK4 = IRAK4 (Homo sapiens (Human), UniProt Q9NWZ3); assay: IRAK4 2-hour 1 mM ATP Biochemical Assay (MesoScale Detection format); details: 100 pM IRAK4, read-out: IRAK4 IC50
Chain of IRAK4 (Q9NWZ3 whole entry): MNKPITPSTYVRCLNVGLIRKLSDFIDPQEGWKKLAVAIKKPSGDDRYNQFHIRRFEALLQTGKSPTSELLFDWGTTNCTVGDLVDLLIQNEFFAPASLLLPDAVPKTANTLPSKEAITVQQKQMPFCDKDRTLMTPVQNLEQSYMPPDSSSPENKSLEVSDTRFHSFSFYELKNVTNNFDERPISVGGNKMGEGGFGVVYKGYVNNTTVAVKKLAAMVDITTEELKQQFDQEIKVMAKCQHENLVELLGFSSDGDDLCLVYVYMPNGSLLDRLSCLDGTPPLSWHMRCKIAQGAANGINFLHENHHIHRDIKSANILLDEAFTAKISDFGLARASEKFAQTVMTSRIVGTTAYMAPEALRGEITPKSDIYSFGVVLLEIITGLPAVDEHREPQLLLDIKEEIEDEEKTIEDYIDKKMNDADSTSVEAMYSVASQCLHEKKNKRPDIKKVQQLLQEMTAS

[4] = read-out: MDR1-MDCK_Efflux Ratio

Row | solubility at 24 h [1] [µg/mL] | IRAK4 SPR binding Half Life [2] [min] | efflux ratio at 120 min, 1 μM (MDR1; [4]) | Kp [3] | IC50 (IRAK4) [nM] | Brain Kpu,u [3] | solubility kinetic at 24 h ([1]; aqueous buffer, comparator table) [µg/mL] | IRAK4 SPR binding Half Life ([2]; comparator table) [min] | efflux ratio at 120 min, 1 μM (MDR1; comparator table, read-out: MDR1-MDCK Efflux Ratio) | Kp ([3]; comparator table) | SMILES
1 | 13.9 (≈ 28.1 µM) | 74 | 18.7 |  | 0.2 |  |  |  |  |  | COCC12CC(n3cc4cc(C(=O)Nc5cccn([C@H]6C[C@H]6F)c5=O)c(OC5CC5)nc4n3)(CO1)C2 (single isomer, unassigned) [Example 86]
2 | 51 (≈ 103 µM) |  | 2.09 | 0.9 | 0.4 |  |  |  |  |  | COCC12CC(n3cc4cc(C(=O)Nc5cccn([C@H]6C[C@H]6C)c5=O)c(OC(C)C)nc4n3)(CO1)C2 [Example 77, 6-isopropoxy-2-(1-(methoxymethyl)-2-oxabicyclo[2.1.1]hexan-4-yl)-N-(1-((1S,2R)-2-methylcyclopropyl)-2-oxo-1,2-dihydropyridin-3-yl)-2H-pyrazolo[3,4-b]pyridine-5-carboxamide]
3 | 45.3 (≈ 100 µM) |  | 8.61 | 0.4 | 0.2 |  |  |  |  |  | CC(C)Oc1cc2nn(C34COC(C3)C4)cc2cc1C(=O)Nc1cccn([C@H]2C[C@H]2F)c1=O [Example 68, 2-(2-oxabicyclo[2.1.1]hexan-4-yl)-N-(1-((1S,2R)-2-fluorocyclopropyl)-2-oxo-1,2-dihydropyridin-3-yl)-6-isopropoxy-2H-indazole-5-carboxamide]
4 | 55.4 (≈ 115 µM) |  | 1.59 | 1.3 | 0.5 |  |  |  |  |  | CC(C)Oc1cc2nn([C@@]34CC[C@@](C)(C3)OC4)cc2cc1C(=O)Nc1cccn([C@@H]2C[C@H]2F)c1=O (single isomer, unassigned) [Example 59]
5 | 58.9 (≈ 118 µM) | 47.2 | 4.35 |  | 0.4 |  |  |  |  |  | COCC12CC(n3cc4cc(C(=O)Nc5cccn([C@H]6C[C@@H]6F)c5=O)c(OC(C)C)nc4n3)(CO1)C2 (single isomer, unassigned) [Example 64]
6 | 20.1 (≈ 43.2 µM) | 48 | 7.21 | 0.3 | 0.2 |  |  |  |  |  | CC12CC(n3cc4cc(C(=O)Nc5cccn([C@H]6C[C@H]6F)c5=O)c(OC5CC5)nc4n3)(CO1)C2 [Example 85, 6-cyclopropoxy-N-(1-((1S,2R)-2-fluorocyclopropyl)-2-oxo-1,2-dihydropyridin-3-yl)-2-(1-methyl-2-oxabicyclo[2.1.1]hexan-4-yl)-2H-pyrazolo[3,4-b]pyridine-5-carboxamide]
7 | 59.3 (≈ 127 µM) |  | 9.11 | 0.2 | 0.2 |  |  |  |  |  | O=C(Nc1cccn([C@H]2C[C@H]2F)c1=O)c1cc2cn([C@]34CC[C@H](C3)OC4)nc2nc1OC1CC1 (single isomer, unassigned) [Example 88]
8 | 32.4 (≈ 72.1 µM) |  | 4.42 | 1 | 0.5 |  |  |  |  |  | CC(C)Oc1nc2nn(C34COC(C3)C4)cc2cc1C(=O)Nc1cccn([C@H]2C[C@H]2C)c1=O [Example 80, 2-(2-oxabicyclo[2.1.1]hexan-4-yl)-6-isopropoxy-N-(1-((1S,2R)-2-methylcyclopropyl)-2-oxo-1,2-dihydropyridin-3-yl)-2H-pyrazolo[3,4-b]pyridine-5-carboxamide]
9 | 8.2 (≈ 17.1 µM) |  | 1.74 | 0.7 | 0.5 |  |  |  |  |  | CC(C)Oc1cc2nn(C34COC(CF)(C3)C4)cc2cc1C(=O)Nc1cccn([C@@H]2C[C@H]2C)c1=O (single isomer, unassigned) [Example 69]

Further lines, the molecule ahead of its results:

Row | SMILES | solubility at 24 h [1] [µg/mL] | IRAK4 SPR binding Half Life [2] [min] | efflux ratio at 120 min, 1 μM (MDR1; [4]) | Kp [3] | IC50 (IRAK4) [nM] | Brain Kpu,u [3] | solubility kinetic at 24 h ([1]; aqueous buffer, comparator table) [µg/mL] | IRAK4 SPR binding Half Life ([2]; comparator table) [min] | efflux ratio at 120 min, 1 μM (MDR1; comparator table, read-out: MDR1-MDCK Efflux Ratio) | Kp ([3]; comparator table)
10 | CC(C)Oc1nc2nn([C@@]34CC[C@@](C)(C3)OC4)cc2cc1C(=O)Nc1cccn(C2CC2)c1=O (single isomer, unassigned) [Example 47] | 1.09 (≈ 2.35 µM) | 54 | 2.04 | 1.6 | 0.2 |  |  |  |  | 
11 | CC(C)Oc1nc2nn(C[C@H]3CCOC3)cc2cc1C(=O)Nc1cccn(C2CC2)c1=O [Example 5, (R)—N-(1-cyclopropyl-2-oxo-1,2-dihydropyridin-3-yl)-6-isopropoxy-2-((tetrahydrofuran-3-yl)methyl)-2H-pyrazolo[3,4-b]pyridine-5-carboxamide] | 45.6 (≈ 104 µM) |  | 4.88 | 0.8 | 0.2 |  |  |  |  | 
12 | C[C@@]12CC[C@@](n3cc4cc(C(=O)Nc5cccn(C6CC6)c5=O)c(OC5CCC5)cc4n3)(CO1)C2 (single isomer, unassigned) [Example 40] | 19.9 (≈ 41.9 µM) |  | 1.32 |  | 0.4 | 0.8 |  |  |  | 
13 | CC12CC(n3cc4cc(C(=O)Nc5cccn([C@H]6C[C@H]6F)c5=O)c(OC5CCC5)nc4n3)(CO1)C2 [Example 27, 6-cyclobutoxy-N-(1-((1S,2R)-2-fluorocyclopropyl)-2-oxo-1,2-dihydropyridin-3-yl)-2-(1-methyl-2-oxabicyclo[2.1.1]hexan-4-yl)-2H-pyrazolo[3,4-b]pyridine-5-carboxamide] | 1.2 (≈ 2.5 µM) |  | 5.38 | 0.7 | 0.1 |  |  |  |  | 
14 | CC(C)Oc1cc2nn([C@@]34CC[C@@](C)(C3)OC4)cc2cc1C(=O)Nc1cccn(C2CC2)c1=O [Example 2, N-(1-cyclopropyl-2-oxo-1,2-dihydropyridin-3-yl)-6-isopropoxy-2-((1S,4S)-1-methyl-2-oxabicyclo[2.2.1]heptan-4-yl)-2H-indazole-5-carboxamide] | 51.7 (≈ 112 µM) | 52.85 | 1.58 | 0.9 | 0.4 |  |  |  |  | 
15 | CC(C)Oc1cc2nn([C@@]34CC[C@@](C)(C3)OC4)cc2cc1C(=O)Nc1cccn([C@H]2C[C@H]2F)c1=O [Example 50, N-(1-((1S,2R)-2-fluorocyclopropyl)-2-oxo-1,2-dihydropyridin-3-yl)-6-isopropoxy-2-((1S,4S)-1-methyl-2-oxabicyclo[2.2.1]heptan-4-yl)-2H-indazole-5-carboxamide] | 40.5 (≈ 84.3 µM) | 138 | 2.75 | 0.4 | 0.1 |  |  |  |  | 
16 | CC(C)Oc1nc2nn(C[C@@H]3CCOC3)cc2cc1C(=O)Nc1cccn(C2CC2)c1=O [Example 4, (S)—N-(1-cyclopropyl-2-oxo-1,2-dihydropyridin-3-yl)-6-isopropoxy-2-((tetrahydrofuran-3-yl)methyl)-2H-pyrazolo[3,4-b]pyridine-5-carboxamide] | 43 (≈ 98.2 µM) |  | 6.36 | 0.4 | 0.4 |  |  |  |  | 
17 | CC(C)Oc1nc2nn(C34COC(C)(C3)C4)cc2cc1C(=O)Nc1cccn(C2CC2)c1=O [Example 9, N-(1-cyclopropyl-2-oxo-1,2-dihydropyridin-3-yl)-6-isopropoxy-2-(1-methyl-2-oxabicyclo[2.1.1]hexan-4-yl)-2H-pyrazolo[3,4-b]pyridine-5-carboxamide] | 18.7 (≈ 41.6 µM) | 80.4 | 3.26 | 0.8 | 0.3 |  |  |  |  | 
18 | CC(C)Oc1nc2nn([C@@H]3CCCOC3)cc2cc1C(=O)Nc1cccn(C2CC2)c1=O [Example 17, (R)—N-(1-cyclopropyl-2-oxo-1,2-dihydropyridin-3-yl)-6-isopropoxy-2-(tetrahydro-2H-pyran-3-yl)-2H-pyrazolo[3,4-b]pyridine-5-carboxamide] | 50.4 (≈ 115 µM) |  | 2.6 | 0.5 | 0.2 |  |  |  |  | 
19 | COCC12CC(n3cc4cc(C(=O)Nc5cccn([C@H]6C[C@H]6F)c5=O)c(OC(C)C)nc4n3)(CO1)C2 [Example 49, N-(1-((1S,2R)-2-fluorocyclopropyl)-2-oxo-1,2-dihydropyridin-3-yl)-6-isopropoxy-2-(1-(methoxymethyl)-2-oxabicyclo[2.1.1]hexan-4-yl)-2H-pyrazolo[3,4-b]pyridine-5-carboxamide] | 62.3 (≈ 125 µM) |  | 9.67 | 0.4 | 0.1 |  |  |  |  | 
20 | C[C@]12CC[C@](n3cc4cc(C(=O)Nc5cccn(C6CC6)c5=O)c(OC5CCC5)cc4n3)(CO1)C2 (single isomer, unassigned) [Example 41] | 19.7 (≈ 41.5 µM) | 31.6 | 1.71 |  | 0.2 | 0.9 |  |  |  | 
21 | CC(C)Oc1cc2nn(C34COC(C)(C3)C4)cc2cc1C(=O)Nc1cccn(C)c1=O [Comparator 1A, 6-isopropoxy-N-(1-methyl-2-oxo-1,2-dihydropyridin-3-yl)-2-(1-methyl-2-oxabicyclo[2.1.1]hexan-4-yl)-2H-indazole-5-carboxamide, reference compound] |  |  |  |  |  |  | 60 (≈ 142 µM) | 9.0 | 1.2 | 1
22 | CC(C)Oc1nc2nn(C34COC(CF)(C3)C4)cc2cc1C(=O)Nc1cccn(C2CC2)c1=O [Example 10, N-(1-cyclopropyl-2-oxo-1,2-dihydropyridin-3-yl)-2-(1-(fluoromethyl)-2-oxabicyclo[2.1.1]hexan-4-yl)-6-isopropoxy-2H-pyrazolo[3,4-b]pyridine-5-carboxamide] | 22.7 (≈ 48.5 µM) | 73.4 | 3.4 | 0.6 | 0.2 |  |  |  |  | 
23 | CC(C)Oc1nc2nn([C@]34CC[C@](C)(C3)OC4)cc2cc1C(=O)Nc1cccn(C2CC2)c1=O (single isomer, unassigned) [Example 48] | 1.48 (≈ 3.19 µM) | 58 | 1.73 |  | 0.2 |  |  |  |  | 
